Measured values reported in patent US9193689B2, “3-aryl-5-substituted-isoquinolin-1-one compounds and their therapeutic use” (INSTITUTE OF CANCER RESEARCH: ROYAL CANCER HOSPITAL (THE), priority 2012, dated 2015).

Target: TNKS1 (Homo sapiens, UniProt O95271)
Assay: TNKS1/PARP Biochemical Assay (TNKS1)

Row | SMILES | IC50 [nM]
1 | Cc1cccc2c(=O)[nH]c(-c3ccc(CN4CCNCC4C)cc3)cc12 (centres unmarked) [IQ-051-1] | < 20
2 | Cc1cccc2c(=O)[nH]c(-c3ccc(CN4CCN(C)C(C)C4)cc3)cc12 (centres unmarked) [IQ-052] | < 50
3 | CC(=O)N1CCN(Cc2ccc(-c3cc4c(C)cccc4c(=O)[nH]3)cc2)CC1 [IQ-055, 3-[4-(4-Acetyl-piperazin-1-ylmethyl)-phenyl]-5-methyl-2H-isoquinolin-1-one] | < 20
4 | CN1CCN(Cc2ccc(-c3cc4c(Cl)cccc4c(=O)[nH]3)cc2)C(=O)C1 [IQ-056] | < 50
5 | Cc1cccc2c(=O)[nH]c(-c3ccc(CN4CCNCC4)c(F)c3)cc12 [IQ-059] | < 50
6 | Cc1cccc2c(=O)[nH]c(-c3ccc(CN4CCCN(C(=O)OC(C)(C)C)CC4)cc3)cc12 [IQ-060] | < 500
7 | Cc1cccc2c(=O)[nH]c(-c3ccc(CN4CCCNCC4)cc3)cc12 [IQ-062] | < 20
8 | Cc1cccc2c(=O)[nH]c(-c3ccc(CN4CC(C)NC(C)C4)cc3)cc12 (centres unmarked) [IQ-063] | < 500
9 | Cc1cccc2c(=O)[nH]c(-c3ccc(CN4CCCN(C)CC4)cc3)cc12 [IQ-065] | < 50
10 | Cc1cccc2c(=O)[nH]c(-c3ccc(C(C)N4CCNCC4)cc3)cc12 (centres unmarked) [IQ-067] | < 50
11 | Cc1cccc2c(=O)[nH]c(-c3ccc(CN4CCN(C(=O)OC(C)(C)C)CC4)nc3)cc12 [IQ-071] | < 500
12 | Cc1cccc2c(=O)[nH]c(-c3ccc(CN4CCNCC4)nc3)cc12 [IQ-072] | < 500
13 | Cc1cccc2c(=O)[nH]c(-c3ccc(CN4CCNCC4=O)cc3)cc12 [IQ-073] | < 50
14 | Cc1cccc2c(=O)[nH]c(-c3ccc(C(C)(C)N4CCNCC4)cc3)cc12 [IQ-075, 5-Methyl-3-[(4-(1-methyl-1-piperazin-1-yl]-ethyl)-phenyl]-2H-isoquinolin-1-one] | < 500
15 | Cc1cc(F)cc2c(=O)[nH]c(-c3ccc(CN4CCN(C(=O)OC(C)(C)C)CC4)cc3)cc12 [IQ-076] | < 500
16 | CC(C)(C)OC(=O)N1CCN(Cc2ccc(-c3cc4c(F)ccc(F)c4c(=O)[nH]3)cc2)CC1 [IQ-077] | < 500
17 | Cc1cc(F)cc2c(=O)[nH]c(-c3ccc(CN4CCNCC4)cc3)cc12 [IQ-078, 7-Fluoro-5-methyl-3-(4-piperazin-1-ylmethyl-phenyl)-2H-isoquinolin-1-one] | < 50
18 | O=c1[nH]c(-c2ccc(CN3CCNCC3)cc2)cc2c(F)ccc(F)c12 [IQ-079] | < 500
19 | O=c1[nH]c(-c2ccc(CN3CCNCC3)cc2)cc2c(Cl)cccc12 [IQ-083] | < 50
20 | Cc1cccc2c(=O)[nH]c(-c3ccc(CN4CCNC(C)C4)cc3)cc12 (centres unmarked) [IQ-084-3] | < 50
21 | Cc1cccc2c(=O)[nH]c(-c3ccc(CN4C[C@@H]5C[C@H]4CN5C(=O)OC(C)(C)C)cc3)cc12 [IQ-085] | < 50
22 | Cc1cccc2c(=O)[nH]c(-c3ccc(CN4CCN5CCCC5C4)cc3)cc12 (centres unmarked) [IQ-087] | < 50
23 | Cc1cccc2c(=O)[nH]c(-c3ccc(CN4CCC5(CCN(C)C5)C4)cc3)cc12 (centres unmarked) [IQ-088] | < 20
24 | Cc1cccc2c(=O)[nH]c(-c3ccc(CN4C[C@@H]5CN(C(=O)OC(C)(C)C)C[C@@H]5C4)cc3)cc12 [IQ-089] | < 500
25 | Cc1cccc2c(=O)[nH]c(-c3ccc(CN4C[C@H]5CNC[C@H]5C4)cc3)cc12 [IQ-090] | < 50
26 | CN1CCC(CNC(=O)c2ccc(-c3cc4c(Cl)cccc4c(=O)[nH]3)cc2)CC1 [IQ-091, 4-(5-Chloro-1-oxo-1,2-dihydro-isoquinolin-3-yl)-N-(1-methyl-piperidin-4-ylmethyl)-benzamide] | < 500

Row | SMILES | IC50 [nM]
27 | Cc1cccc2c(=O)[nH]c(-c3ccc(C(=O)N(C)C4CCNCC4)cc3)cc12 [IQ-096, N-Methyl-4-(5-methyl-1-oxo-1,2-dihydro-isoquinolin-3-yl)-N-piperidin-4-yl-benzamide] | < 50
28 | CN1CCN(C(=O)c2ccc(-c3cc4c(Cl)cccc4c(=O)[nH]3)cc2)CC1 [IQ-101] | < 50
29 | Cc1cccc2c(=O)[nH]c(-c3ccc(C(=O)N4CCN(C)CC4)cc3)cc12 [IQ-104] | < 20
30 | Cc1cccc2c(=O)[nH]c(-c3ccc(C(=O)N4CCN(C5CC5)CC4)cc3)cc12 [IQ-105] | < 50
31 | Cc1cccc2c(=O)[nH]c(-c3ccc(C(=O)N4CCOCC4)cc3)cc12 [IQ-107] | < 20
32 | Cc1cccc2c(=O)[nH]c(-c3ccc(OCCN4CCCC4)cc3)cc12 [IQ-134] | < 50
33 | CC(C)(C)OC(=O)N1CCN(c2ccc(-c3cc4c(Cl)cccc4c(=O)[nH]3)cn2)CC1 [IQ-136] | < 500
34 | CN1CCN(Cc2ccc(-c3cc4c(F)cc(F)cc4c(=O)[nH]3)cc2)CC1 [IQ-138] | < 50
35 | Cc1cccc2c(=O)[nH]c(-c3ccc(S(=O)(=O)N4CCN(C(=O)OC(C)(C)C)CC4)cc3)cc12 [IQ-140] | < 500
36 | Cc1cccc2c(=O)[nH]c(-c3ccc(CN4CCN(C(=O)OC(C)(C)C)CC4C)cc3)cc12 (centres unmarked) [IQ-142] | < 500
37 | Cc1cccc2c(=O)[nH]c(-c3ccc(CN4CCN(C(=O)OC(C)(C)C)C(C)C4)cc3)cc12 (centres unmarked) [IQ-143] | < 500
38 | CN(CC1CCN(C(=O)OC(C)(C)C)CC1)C(=O)c1ccc(-c2cc3c(Cl)cccc3c(=O)[nH]2)cc1 [IQ-145] | < 500
39 | Cc1ccc(S(=O)(=O)N2CCN(C(C)(C)c3ccc(-c4cc5c(C)cccc5c(=O)[nH]4)cc3)CC2)cc1 [IQ-148] | < 500
40 | CC(C)(C)OC(=O)N1CCN(Cc2ccc(-c3cc4c(F)cc(F)cc4c(=O)[nH]3)cc2)CC1 [IQ-154] | < 500
41 | O=c1[nH]c(-c2ccc(CN3CCNCC3)cc2)cc2c(F)cc(F)cc12 [IQ-158] | < 50
42 | Cc1cccc2c(=O)[nH]c(-c3ccc(CN4CCN(CC5CC5)CC4)nc3)cc12 [IQ-161] | < 500
43 | Cc1cccc2c(=O)[nH]c(-c3ccc(CN4CCN(C(=O)C5CC5)CC4)nc3)cc12 [IQ-162] | < 20
44 | Cc1cccc2c(=O)[nH]c(-c3ccc(CN4CCNC(=O)C4)cc3F)cc12 [IQ-166] | < 500
45 | Cc1cccc2c(=O)[nH]c(-c3ccc(CN4CC(O)C4)cc3)cc12 [IQ-167] | < 20
46 | Cc1cccc2c(=O)[nH]c(-c3ccc(Cn4ccnc4C)cc3)cc12 [IQ-168] | < 20
47 | Cc1cccc2c(=O)[nH]c(-c3ccc(CN4CC(O)C4)c(F)c3)cc12 [IQ-169] | < 50
48 | Cc1cc(F)cc2c(=O)[nH]c(-c3ccc(CN4CC(O)C4)cc3)cc12 [IQ-170, 7-Fluoro-3-[4-(3-hydroxy-azetidin-1-ylmethyl)-phenyl]-5-methyl-2H-isoquinolin-1-one] | < 20
49 | Cc1cccc2c(=O)[nH]c(-c3ccc(Cn4cncn4)cc3)cc12 [IQ-171] | < 50
50 | Cc1cccc2c(=O)[nH]c(-c3ccc(CN4CC(C)(O)C4)cc3)cc12 [IQ-172] | < 20
51 | Cc1cccc2c(=O)[nH]c(-c3ccc(CC(=O)N4CCN(C)CC4)cc3)cc12 [IQ-175] | < 20

The remaining lines, values ahead:

Row | IC50 [nM] | SMILES
52 | < 500 | Cc1cccc2c(=O)[nH]c(-c3ccc(C(=O)N(C)CC4CCN(C(=O)OC(C)(C)C)CC4)cc3)cc12 [IQ-092, 4-({Methyl-[4-(5-methyl-1-oxo-1,2-dihydro-isoquinolin-3-yl)-benzoyl]-amino}-methyl)-piperidine-1-carboxylic acid tert-butyl ester]
53 | < 50 | Cc1cccc2c(=O)[nH]c(-c3ccc(C(=O)N(C)CC4CCN(C)CC4)cc3)cc12 [IQ-095, N-Methyl-4-(5-methyl-1-oxo-1,2-dihydro-isoquinolin-3-yl)-N-(1-methyl-piperidin-4-ylmethyl)-benzamide]
54 | < 20 | Cc1cccc2c(=O)[nH]c(-c3ccc(C(=O)N(C)CC4CCOCC4)cc3)cc12 [IQ-097, N-Methyl-4-(5-methyl-1-oxo-1,2-dihydro-isoquinolin-3-yl)-N-(tetrahydro-pyran-4-ylmethyl)-benzamide]
55 | < 50 | Cc1cccc2c(=O)[nH]c(-c3ccc(C(=O)N(C4CC4)C4CCN(C)CC4)cc3)cc12 [IQ-098]
56 | < 20 | Cc1cccc2c(=O)[nH]c(-c3ccc(C(=O)N(C)C4CCN(C)CC4)nc3)cc12 [IQ-099]
57 | < 50 | Cc1cccc2c(=O)[nH]c(-c3ccc(S(=O)(=O)N(C)C)cc3)cc12 [IQ-108]
58 | < 20 | Cc1cccc2c(=O)[nH]c(-c3ccc(S(=O)(=O)N(C)C4CCN(C)CC4)cc3)cc12 [IQ-109]
59 | < 500 | CN1CCC(N(C)S(=O)(=O)c2ccc(-c3cc4c(Cl)cccc4c(=O)[nH]3)cc2)CC1 [IQ-110]
60 | < 50 | Cc1cccc2c(=O)[nH]c(-c3ccc(S(=O)(=O)N(C)CC4CCN(C)CC4)cc3)cc12 [IQ-111]
61 | < 50 | CN1CCC(CN(C)S(=O)(=O)c2ccc(-c3cc4c(Cl)cccc4c(=O)[nH]3)cc2)CC1 [IQ-112]
62 | < 500 | Cc1cccc2c(=O)[nH]c(-c3ccc(S(=O)(=O)N(C)CC4CCN(C(=O)OC(C)(C)C)CC4)cc3)cc12 [IQ-113]
63 | < 500 | CN(CC1CCN(C(=O)OC(C)(C)C)CC1)S(=O)(=O)c1ccc(-c2cc3c(Cl)cccc3c(=O)[nH]2)cc1 [IQ-114]
64 | < 20 | Cc1cccc2c(=O)[nH]c(-c3ccc(S(=O)(=O)N(C)CC4CCNCC4)cc3)cc12 [IQ-115]
65 | < 50 | CN(CC1CCNCC1)S(=O)(=O)c1ccc(-c2cc3c(Cl)cccc3c(=O)[nH]2)cc1 [IQ-116]
66 | < 20 | Cc1cccc2c(=O)[nH]c(-c3ccc(S(=O)(=O)N(C)CCN(C)C)cc3)cc12 [IQ-117]
67 | < 20 | Cc1cccc2c(=O)[nH]c(-c3ccc(S(=O)(=O)N(C)CC4CCOCC4)cc3)cc12 [IQ-118]
68 | < 500 | Cc1cccc2c(=O)[nH]c(-c3ccc(S(=O)(=O)N(C4CC4)C4CCN(C)CC4)cc3)cc12 [IQ-119]
69 | < 20 | Cc1cccc2c(=O)[nH]c(-c3ccc(S(=O)(=O)N(C)CCO)cc3)cc12 [IQ-120]
70 | < 500 | CN1CCN(S(=O)(=O)c2ccc(-c3cc4c(Cl)cccc4c(=O)[nH]3)cc2)CC1 [IQ-122]
71 | < 20 | Cc1cccc2c(=O)[nH]c(-c3ccc(S(=O)(=O)N4CCNCC4)cc3)cc12 [IQ-123]
72 | < 20 | Cc1cccc2c(=O)[nH]c(-c3ccc(S(=O)(=O)N4CCC(N(C)C)CC4)cc3)cc12 [IQ-125]
73 | < 500 | CN(C)C1CCN(S(=O)(=O)c2ccc(-c3cc4c(Cl)cccc4c(=O)[nH]3)cc2)CC1 [IQ-126]
74 | < 50 | Cc1cccc2c(=O)[nH]c(-c3ccc(CN4CCC(N(C)C)C4)cc3)cc12 (centres unmarked) [IQ-173]
